Experimental data taken from patent publication US10975123B2, “Mutant Akt-specific capture agents, compositions, and methods of using and making” (California Institute of Technology, priority 2014, dated 2021).
“Also recorded” adds a separate entry of the source. Where a SMILES comes first, the peptide text is derived from it. Bridges are numbered along the chain shown (N, C = ends). Roman numbers before positions name the chains, in order. Triazole bridges read from a SMILES are 1,4-linked. Where no end group is shown, it is not given here. [ ]: non-standard residue; d: D form. The star is where a group is joined. Biotin = O=C1N[C@H]2[C@H](CS[C@H]2CCCCC(=O)*)N1; Lys(N3) = [N-]=[N+]=NCCCC[C@H](N)C(=O)O; PEG6 = NCCOCCOCCOCCOCCOCCOCCC(=O)O; dPra = C#CC[C@@H](N)C(=O)O

Key:
[1] = biological target: T1, E17K GST-PH Domain (E17K Akt1) (Homo sapiens, UniProt P31749, E17K); test: Full curve ELISA, immobilized ligand, E17K protein; assay type: binding; conditions: in words
T1 construct: The first 124 N-terminal amino acids from full length Akt1 were used as the PH Domain DNA; GST (N); thrombin cleavage site (C); 6His (C); made in house; host or cells: E. coli BL21-DE3-pLys
T1 sequence (P31749 1-124 E17K): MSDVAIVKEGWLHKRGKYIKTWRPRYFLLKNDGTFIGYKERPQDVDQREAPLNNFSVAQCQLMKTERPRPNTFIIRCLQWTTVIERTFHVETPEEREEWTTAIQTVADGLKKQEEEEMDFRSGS
Experimental: The full curve ELISAs were obtained using streptavidin coated ELISA plates (Pierce). The ligands—anchor, biligand, triligand and “eflya” scrambled anchor peptide blank—were laid down at a concentration of 1 μM for one hour. Two lanes of each ligand were used on the plate for both proteins—WT and E17K GST-PH Domain. The plates were blocked with 5% BSA for two hours. Dilutions of both WT and E17K GST-PH Domain proteins were made in 0.5% BSA in 1×TBS starting from 1 μM-0.5 nM by serially diluting 1:2 down a series of 8 samples. For each ligand, a no protein blank was also used. The proteins were incubated with the blocked plate for one hour, washed 3× with 1×TBST+0.5% BSA and tapped dry, then detected with a 1:10,000 dilution of an HRP conjugated anti-GST pAb. The plate was again washed 3× with 1×TBST and tapped dry. It was developed with a 1:1 solution of TMB substrate and development was stopped with 1M H2SO4 and read on a plate reader.

WT GST-PH Domain (Akt1) = biological target: T2, WT GST-PH Domain (Akt1) (Homo sapiens, UniProt P31749); test: Full curve ELISA, immobilized ligand, WT protein; assay type: binding; conditions: in words
T2 construct: The first 124 N-terminal amino acids from full length Akt1 were used as the PH Domain DNA; GST (N); thrombin cleavage site (C); 6His (C); made in house; host or cells: E. coli BL21-DE3-pLys
T2 sequence (P31749 1-124): as the sequence (P31749 1-124 E17K) above, with K17E counted along it
Experimental: The full curve ELISAs were obtained using streptavidin coated ELISA plates (Pierce). The ligands—anchor, biligand, triligand and “eflya” scrambled anchor peptide blank—were laid down at a concentration of 1 μM for one hour. Two lanes of each ligand were used on the plate for both proteins—WT and E17K GST-PH Domain. The plates were blocked with 5% BSA for two hours. Dilutions of both WT and E17K GST-PH Domain proteins were made in 0.5% BSA in 1×TBS starting from 1 μM-0.5 nM by serially diluting 1:2 down a series of 8 samples. For each ligand, a no protein blank was also used. The proteins were incubated with the blocked plate for one hour, washed 3× with 1×TBST+0.5% BSA and tapped dry, then detected with a 1:10,000 dilution of an HRP conjugated anti-GST pAb. The plate was again washed 3× with 1×TBST and tapped dry. It was developed with a 1:1 solution of TMB substrate and development was stopped with 1M H2SO4 and read on a plate reader. The curves in FIG. 4B were plotted by normalizing the signal by the blank wells, and were fitted to a Hill function in GraphPad using a common saturation and slope (Bmax=1.466+/−0.03, h=0.7383+/−0.025).

[2] = biological target: T3, E17K PH Domain binding to PIP3 (Homo sapiens, UniProt P31749, E17K); test: PIP3 agarose inhibition assay, E17K; assay type: biochemical; conditions: ligand 2.38 μM (10x protein), protein 234 nM, western blot, in words
T3 construct: 2 μg of either wildtype or mutant PH Domain-GFP protein (234 nM); made in house; host or cells: HEK-293-6E (used as cell lysate, not purified)
T3 sequence (P31749 5-108 E17K limits assumed): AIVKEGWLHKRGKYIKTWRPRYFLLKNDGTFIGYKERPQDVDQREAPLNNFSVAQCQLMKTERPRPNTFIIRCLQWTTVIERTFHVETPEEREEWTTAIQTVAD
Excerpt: The yleaf ligand, the biligand, and the triligand were all tested for their ability to block the E17K PHD binding with PIP3. For this test, PIP3-coated resin (Echelon Biosciences) was used to mimic the PHD interaction with the cell membrane, and could be used to bind the protein as in an immunoprecipitation assay^22. The presence of an effective blocking compound would reduce the ability of the resin to capture the protein, and would thus appear as a diminished signal in the corresponding western blot assay. A control lane containing no capture agent was used to show baseline binding of the protein to the PIP3 resin. […] In an expanded study, we compared the amount of E17K and WT PH domain binding relative to the amount of added triligand (FIG. 5e).
PIP3 Agarose beads (Echelon) were used to detect for the inhibition of PH Domain binding to its substrate, PIP3, upon incubation with the anchor candidate peptide ligands. To test the inhibition of each of the ligands, anchor biligand and triligand, 20 μL of resin slurry was added to each of four tubes and washed three times with 1×TBS. Protein, 2 μg (234 nM) of E17K mutant, was preincubated for one hour at room temperature with either DMSO (no protein blank), anchor, biligand or triligand at 2.38 μM (10× in relation to protein) in 200 μL of 1×TBS. For the control, mutant PH Domain was incubated with 1×TBS and 1 μL […] to mimic the ligand conditions. These protein samples were then added to PIP3 agarose in a Spin-X tube and incubated at room temperature for two hours. The resin was washed three times with 1×TBS with 0.25% IGEPAL CA-630, spun out to dry completely, then denatured with 50 μL 3×SDS gel loading buffer for 10 min at 95° C. The gel loading buffer was spun out of the resin and detected via western blot as per the Streptavidin-Agarose Pulldowns. Inhibition was indicated by a decrease in the amount of PH Domain that was pulled down by the resin.
Expanded inhibition blots with either WT of E17K mutant protein were performed in a similar fashion. Twelve tubes of 20 μL of PIP3 agarose were washed three times with 1×TBS. 2 μg of either wildtype or mutant PH Domain-GFP protein (234 nM) in 200 uL 1×TBS were preincubated for 30 minutes with differing concentrations of triligand: 0.1 eq (23.4 nM), 1 eq (234 nM), 10 eq (2.34 μM), 100 eq (23.4 μM), and 1000 eq (234 μM). The protein and triligand solutions were then incubated with the PIP3 resin for 2 hours at room temperature. The resins were washed, eluted, and blotted as per all PH Domain western blots.

[3] = biological target: T4, E17K mutant PH Domain (PHD) of Akt1 (Homo sapiens, UniProt P31749, E17K); test: Streptavidin-agarose immunoprecipitation (pulldown), E17K; assay type: binding; conditions: in words
T4 construct: The first 124 N-terminal amino acids from full length Akt1 were used as the PH Domain DNA; made in house; host or cells: E. coli
T4 sequence (P31749 1-124 E17K): as the sequence (P31749 1-124 E17K) above
Experimental: (§1) Four biligand candidates were chosen based on their hydrophobicity and sequence homology using principal component analysis (FIG. 25). Biligands were synthesized by coupling the 2° ligand onto Rink Amide Resin on the Titan peptide synthesizer. The amide group on the end of the Lys(N3) was capped by shaking the resin with 2 mL acetic anhydride, 2 mL NMP and 0.5 mL DIEA for 3×10 minutes, then washed with NMP. FMOC-Propargylglycine-Otbu (Pra) was clicked onto the Lys(N3) on the 2° ligand by incubating 2 eq of the Pra amino acid with 2 eq CuI and 2 eq ascorbic acid with 1 eq azide on resin in 20% piperidine/NMP for 3 hours. The resin was washed 5×4 mL with a chelating solution of 1 g sodium diethyldithiocarbamate in 20 mL NMP and 1 mL DIEA. The anchor was then built onto the 2° ligand on bead, and an N-terminal PEG5-biotin tag were added. Assays were performed exactly as for the anchor ligands, except for two key differences. The biligand assays were done with 6 ug of GST-tagged PHD protein, instead of the untagged PHD that was used in the anchor pulldowns. The pull-downs were also conducted out of 1% serum in 1×TBS, as opposed to just 1×TBS.
(§2) Pulldown assays were done on Streptavidin Agarose resin from Invitrogen. The resin was incubated with N-terminal biotinylated anchor peptide candidates identified via the ClusterLigand sequence analysis. The anchor candidate coated beads were then incubated with either the wildtype or mutant protein to compare the selectivity of the ligands, as well as the binding ability. The bound protein was eluted and western blotted to compare the amount of protein present for each sample.
(§3) Relative protein band sizes were analyzed to compare binding between the anchor candidates and were used to determine selectivity for either wildtype or mutant PH Domain (FIG. 11). […] Both of these ligands look fairly selective for their respective PH Domain.

[4] = biological target: T5, wildtype PH Domain (PHD) of Akt1 (Homo sapiens, UniProt P31749); test: Streptavidin-agarose immunoprecipitation (pulldown), WT; assay type: binding; conditions: in words
T5 construct: The first 124 N-terminal amino acids from full length Akt1 were used as the PH Domain DNA; made in house; host or cells: E. coli
T5 sequence (P31749 1-124): as the sequence (P31749 1-124 E17K) above, with K17E counted along it
Experimental: as §1, §2, §3

[5] = biological target: T6, E17K 33-mer fragment (6His-tagged) (Homo sapiens, UniProt P31749, E17K/H13K); test: HPLC-detected immunoprecipitation (pulldown), E17K 33-mer; assay type: binding; conditions: 50 μM epitope, overnight 4° C., guanidine elution, in words
T6 construct: made in house; host or cells: chemical synthesis (Fmoc SPPS)
T6 sequence (P31749 1-33 H13K/E17K limits assumed): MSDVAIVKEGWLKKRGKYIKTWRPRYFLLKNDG
Excerpt: The label-modified yleaf (SEQ ID NO: 43) peptide (FIG. 2a and FIG. 12) was subjected to a variety of binding assays against the synthesized WT and E17K 33-mer PHD fragments prepared without the biotin label and alkyne click handle. First, the yleaf (SEQ ID NO: 43) peptide was used in immunoprecipitation assays to pull-down either the WT or E17K mutant 6His-tagged (SEQ ID NO: 4) 33-mer peptide fragments (FIGS. 13 and 14), as opposed to the full-length proteins that were used to initially validate the candidates. Typical immunoprecipitation assays involve western blotting to estimate the amount of protein binding, but 33-mer peptide fragments are not easily quantified on a blot. Because of this, the amount of peptide epitope precipitated in these assays was quantified via injection on an analytical HPLC. These assays further confirmed preferential yleaf (SEQ ID NO: 43) ligand binding to the E17K 33-mer epitope relative to the WT epitope (FIG. 15).
Pulldown assays with the biotinylated anchor and his-tagged 33-mer epitope were performed to verify epitope targeting. […] Because small peptide fragments like the 33-mer epitope are difficult to transfer to and detect on the nitrocellulose membrane as for a traditional Western blot, the amount of binding in these assays was detected via HPLC. […]

[6] = 6 ug GST-tagged PHD, 1% serum in 1xTBS, western blot, listed as yleaf-yksy
[7] = streptavidin agarose, 1xTBS, western blot band size

amount of E17K 33-mer fragment pulled down (HPLC peak) [5]	Compound	change in binding affinity for the E17K protein versus the preceding ligand (ELISA) [1]	change in binding affinity for the WT protein versus the preceding ligand (ELISA) (WT GST-PH Domain (Akt1))	inhibition of E17K PH Domain binding to PIP3-coated resin [2]	inhibition of E17K PH Domain binding to PIP3-coated resin ([2]; listed as biligand 7)	pulldown of E17K GST-PHD by biligand candidates [3, 6]	pulldown of WT GST-PHD by biligand candidates [4, 6]	pulldown of E17K mutant PH Domain by biotinylated anchor candidates [3, 7]	pulldown of wildtype PH Domain by biotinylated anchor candidates [4, 7]
	CC(=O)N[C@@H](CCCCn1cc(C[C@@H](NC(=O)[C@@H](Cc2ccccc2)NC(=O)[C@@H](C)NC(=O)[C@@H](CCC(=O)O)NC(=O)[C@@H](CC(C)C)NC(=O)[C@@H](Cc2ccc(O)cc2)NC(=O)CCOCCOCCOCCOCCOCCOCCNC(=O)CCCC[C@@H]2SC[C@@H]3NC(=O)N[C@@H]32)C(=O)O)nn1)C(=O)N[C@H](Cc1ccc(O)cc1)C(=O)N[C@H](CCCCN)C(=O)N[C@H](CO)C(=O)N[C@H](Cc1ccc(O)cc1)C(N)=O [biligand] (I: {Biotin-PEG6}-[dY][dL][dE][dA][dF][dPra]-OH / II: Ac-[Lys(N3)][dY][dK][dS][dY]-NH2; triazole I:6-II:1)	an increase in affinity for the E17K mutant protein	an even larger increase in affinity for the WT protein	exhibited the ability to block the PHD-PIP3 interaction	decreased binding of the protein	the greatest signal in binding the E17K protein; also recorded: the highest signal for the E17K protein	the lowest in binding the WT protein; also recorded: the lowest off-target signal to the WT protein		
much less pull down than the yleaf	eefef ([dE][dE][dF][dE][dF]) [off-target control]							the least pulldown for the mutant protein	the only pulldown of the wildtype protein
	iryrn: triligand candidate: biligand yleaf-yksy with tertiary ligand iryrn (SEQ ID NO: 92) (IRYRN)	a significant improvement on the binding affinity for the E17K protein	an even bigger increase for the WT protein						
